Assay results published in patent US8669265B2, “Hydrated form of erlotinib free base and a process for preparation of erlotinib hydrochloride polymorph form a substantially free of polymorph form B” (Hetero Research Foundation, priority 2007, dated 2014).

Legend:
[1] = Particle size distribution by laser diffraction (Sympatec Helos, 1 bar dispersive pressure); assay type: physicochemical; conditions: isolated crystalline product of the example; hydrochloride
Text: The term “Particle Size Distribution (P.S.D.)” means the cumulative volume size distribution of equivalent spherical diameters as determined by laser diffraction at 1 bar dispersive pressure in a Sympatec Helos equipment. “Mean particle size distribution, i.e., d(0.5)” correspondingly, means the median of said particle size distribution.

[2] = Hygroscopicity and storage stability of the crystalline form (stated in words); assay type: physicochemical

| Structure (SMILES) | 90 volume-% of the particles (D90) [1] [μm] | Mean particle size (D50) [1] [μm] | Storage stability [2] | Hygroscopicity [2] |
| --- | --- | --- | --- | --- |
| C#Cc1cccc(Nc2ncnc3cc(OCCOC)c(OCCOC)cc23)c1.Cl [Reference Example 5, N-(3-ethynylphenyl)-6,7-bis(2-methoxyethoxy)-4-quinazolinamine hydrochloride] | 4.61 | 3.50 | – | – |
| C#Cc1cccc(Nc2ncnc3cc(OCCOC)c(OCCOC)cc23)c1.Cl [Reference Example 1, N-(3-ethynylphenyl)-6,7-bis(2-methoxyethoxy)-4-quinazolinamine hydrochloride] | 4.53 | 3.42 | – | – |
| C#Cc1cccc(Nc2ncnc3cc(OCCOC)c(OCCOC)cc23)c1.Cl [Example 6, N-(3-ethynylphenyl)-6,7-bis(2-methoxyethoxy)-4-quinazolinamine hydrochloride] | 18.96 | 5.48 | – | – |
| C#Cc1cccc(Nc2ncnc3cc(OCCOC)c(OCCOC)cc23)c1.Cl [Reference Example 2, N-(3-ethynylphenyl)-6,7-bis(2-methoxyethoxy)-4-quinazolinamine hydrochloride] | 7.74 | – | – | – |
| C#Cc1cccc(Nc2ncnc3cc(OCCOC)c(OCCOC)cc23)c1.Cl [N-(3-ethynylphenyl)-6,7-bis(2-methoxyethoxy)-4-quinazolinamine hydrochloride] | – | – | stable over the time | – |
| C#Cc1cccc(Nc2ncnc3cc(OCCOC)c(OCCOC)cc23)c1 [crystalline erlotinib hydrate, erlotinib hydrate] | – | – | storage stable over the time | non-hygroscopic |
